Legend:
[1] = system: HT-22 mouse hippocampal neuronal cell line; experiment: Cytotoxicity of compounds alone, MTT assay, HT-22; assay type: cell-based; details: HT-22, 24 h, escalating concentrations
Protocol: (§1) In the study of neurotoxicity associated with AD, the HT22 mouse hippocampal neuronal cell line has been recognized as an effective cell model. HT22 cells were purchased from Merck-Sigma-Aldrich (SCC12, Madrid, Spain) and cultured in DMEM-F12 (Gibco, Fisher Scientific, Madrid, Spain) supplemented with foetal bovine serum (FBS, 10%) and 1% penicillin/streptomycin under standard conditions (37 °C, 5% CO2). The human dopaminergic cell line SH-SY5Y, in turn, has been widely used as an in vitro model to study the pathogenesis of PD associated with dopaminergic degeneration. Cells, acquired from the American Type Culture Collection (ATCC, Rockville, MD, USA, Ref.CRL-2266), were grown in RPMI medium (Gibco) supplemented with glutamine (2 mM), 10% FBS, and 1% penicillin/streptomycin under standard conditions. Semiconfluent cells (90%) were seeded on 96-well plates at 3 × 10^4 per well and incubated for 24 h before treatment.
(§2) Neuronal cultures, HT-22 and SH-SY5Y, seeded on 96-well plates were treated with LSL33, LSL34, and LSL60101 for 24 h, and viability was assessed using the MTT assay. […] Then, cultures were treated for 1h with LSL33 at 2 μM and LSL34 and LSL60101 at 1 μM. This dose was chosen based on previous studies. Subsequently, HT-22 cultures were exposed to glutamate (10 mM, Merck-Sigma), while SH-SY5Y cultures received 6-hydroxydopamine (6-OHDA, 35 μM, Merck-Sigma). The cells were then incubated for a minimum of 16 h. Finally, the cellular viability and nitrite production of the cultures were assessed.
(§3) The assessment of cell viability was conducted using the 3-(4,5-dimethylthiazol-2-yl)-5-(3-carboxymethoxyphenyl)-2-(4-sulfophenyl)-2H-tetrazolium (MTT) assay, following the instructions provided by the manufacturer (Roche Diagnostic, Darmstadt, Germany). […] The absorbance of the solution was measured at 595–650 nm using a spectrophotometer. The experiments were performed at least three times, and the results were expressed as a percentage of the control. […]

[2] = PAMPA-BBB permeation assay; assay type: in vitro ADME, porcine; details: pig, PBS/EtOH (70:30), mean ± SD, read-out: Permeability Pe
Protocol: In vitro Blood-Brain Barrier Permeation Assay
To evaluate the brain penetration of the different compounds, a parallel artificial membrane permeation assay for blood-brain barrier was used, following the method described by Di et al.1 The in vitro permeability (Pe) of fourteen commercial drugs (see Table S1) through lipid extract of porcine brain membrane together with the test compounds were determined. Commercial drugs and assayed compounds were tested using a mixture of PBS:ETOH (70:30). Assay validation was made by comparing the experimental permeability with the reported values of the commercial drugs by bibliography and lineal correlation between experimental and reported permeability of the fourteen commercial drugs using the parallel artificial membrane permeation […]
From this equation and taking into account the limits established by Di et al. for BBB permeation, we established the ranges of permeability […]
predictive penetration in the CNS used as references.
1 Di, L.; Kerns, E. H.; Fan, K.; McConnell, O. J.; and Carter, G. T. High throughput artificial membrane permeability assay for blood-brain barrier.

[3] = system: SH-SY5Y dopaminergic neurons; experiment: 6-OHDA-induced damage in SH-SY5Y cells (MTT viability, Griess nitrite); assay type: cell-based, human; details: 35 μM 6-OHDA; for neuroprotection (cell viability, MTT): 1 h pretreatment, LSL33 2 μM, LSL34 and LSL60101 1 μM; for nitrite production: culture supernatant
Protocol: as §1, §2
The assessment of cell viability was conducted using the 3-(4,5-dimethylthiazol-2-yl)-5-(3-carboxymethoxyphenyl)-2-(4-sulfophenyl)-2H-tetrazolium (MTT) assay, following the instructions provided by the manufacturer (Roche Diagnostic, Darmstadt, Germany). Briefly, after exposure to glutamate or 6-OHDA, the cell culture medium was replaced with 100 μL of fresh culture medium containing MTT solution (0.5 mg/mL) and incubated for 1 h. The medium was then removed, and the resulting formazan crystals were dissolved in dimethylsulfoxide (DMSO, Merck-Sigma). The absorbance of the solution was measured at 595–650 nm using a spectrophotometer. The experiments were performed at least three times, and the results were expressed as a percentage of the control.
Following the designated treatments, 100 μL of the cell culture supernatant was mixed with an equal volume of Griess reagent (consisting of 1% sulfanylamide and 0.1% naphthyl ethylene diamine in 5% phosphoric acid, sourced from Sigma-Aldrich, Madrid, Spain) at room temperature for 15 min. To determine the nitrite concentrations, a standard solution of sodium nitrite was employed. The absorbance of the mixture was measured at 492/540 nm using a microplate reader from Thermofisher (Madrid, Spain). The experiments were repeated a minimum of three times.
Figure 4 In vitro screening of I2-IR ligands: Assessment of neuroprotective and anti-inflammatory effects HT-22 cells exposed to 10mM glutamate for at least 16 h Similarly, SH-SY5Y was damaged with 35 μM 6-OHDA (35 μM). Some cultures were pretreated with the I2-IR ligands. Cell viability was evaluated using the MTT assay, and nitrite production in the cell supernatant was quantified using the Griess reaction. The reported values represent the mean ± SD obtained from triplicate determinations repeated at least three times. Statistical analysis was performed: * p ≤ 0.05, ** p ≤ 0.01, *** p ≤ 0.001 (versus glutamate- or 6-OHDA-treated cultures); ^# p ≤ 0.05, ^### p ≤ 0.001 (versus idazoxan-treated cultures); ^& p ≤ 0.1, ^&&& p ≤ 0.001 (versus 2-BFI-treated cultures).

[4] = system: human dopaminergic cell line SH-SY5Y; experiment: Cytotoxicity of compounds alone, MTT assay, SH-SY5Y; assay type: cell-based; details: 24 h, escalating concentrations
Protocol: as §1, §2, §3

| SMILES | cytotoxicity (MTT viability) [1] | Papp [2] [×10⁻⁶ cm/s] | neuroprotection (cell viability, MTT) [3] | nitrite production [3] | cytotoxicity (MTT viability) [4] |
| --- | --- | --- | --- | --- | --- |
| c1ccc2oc(-c3ncc[nH]3)cc2c1 [LSL60101, reference compound] | None of the compounds tested were cytotoxic | 13.6 ± 0.4 | potent neuroprotective effects | significant attenuation of the increased nitrite production | None of the compounds tested were cytotoxic |
| Cl.c1ccc2sc(-c3ncc[nH]3)cc2c1 [LSL33, 2-(Benzo[b]thiophene-2-yl)-1H-imidazole hydrochloride] | None of the compounds tested were cytotoxic | 8.1 ± 0.4 | potent neuroprotective effects | significant attenuation of the increased nitrite production | None of the compounds tested were cytotoxic |
| Cl.c1ccc2oc(-n3ccnc3)cc2c1 [LSL34, 1-(Benzofuran-2-yl)-1H-imidazole hydrochloride] | None of the compounds tested were cytotoxic | 14.1 ± 0.5 | potent neuroprotective effects | significant attenuation of the increased nitrite production | None of the compounds tested were cytotoxic |

— PMC10610545, “Preclinical Evaluation of an Imidazole-Linked Heterocycle for Alzheimer’s Disease” (Pharmaceutics, 2023)
